Measured values from US20080103049A1, “Benzoyl-Substituted Serineamides” (BSDG Aktiengesellschaft, priority 2004, published 2008).

Key:
Type in all cases: in vivo
[1] = system: Setaria viridis (green foxtail); assay: greenhouse post-emergence herbicidal test, green foxtail; settings: for post-emergence action against green foxtail: application rate 0.5 kg/ha a.s.; for post-emergence control of green foxtail: application rate 1.0 kg/ha a.s.
Text: (§1) The culture containers used were plastic flowerpots containing loamy sand with approximately 3.0% of humus as the substrate. The seeds of the test plants were sown separately for each species.
(§2) For the post-emergence treatment, the test plants were first grown to a height of 3 to 15 cm, depending on the plant habit, and only then treated with the active ingredients which had been suspended or emulsified in water. For this purpose, the test plants were either sown directly and grown in the same containers, or they were first grown separately as seedlings and transplanted into the test containers a few days prior to treatment. The rate of application for the post-emergence treatment was 1.0 or 0.5 kg/ha of a.s. (active substance).
(§3) Depending on the species, the plants were kept at 10-25° C. or 20-35° C. The test period extended over 2 to 4 weeks. During this time, the plants were tended, and their response to the individual treatments was evaluated.
(§4) Evaluation was carried out using a scale from 0 to 100. 100 means no emergence of the plants, or complete destruction of at least the aerial parts, and 0 means no damage, or normal course of growth.
(§5) The plants used in the greenhouse experiments belonged to the following species: […]

[2] = system: Chenopodium album (lambsquarters); assay: greenhouse post-emergence herbicidal test, lambsquarters; settings: for post-emergence action against lambsquarters: application rate 0.5 kg/ha a.s.; for post-emergence control of lambsquarters: application rate 1.0 kg/ha a.s.
Text: as §1, §2, §3, §4, §5

[3] = system: Amaranthus retroflexus (pig weed); assay: greenhouse post-emergence herbicidal test, pig weed; settings: for post-emergence action against pig weed: application rate 0.5 kg/ha a.s.; for post-emergence control of pig weed: application rate 1.0 kg/ha a.s.
Text: as §1, §2, §3, §4, §5

CNC(=O)C(NC(=O)c1ccc(F)cc1C(F)(F)F)C(OC(=O)N(C)C)c1cccnc1F (racemic) [Compound 3.71]
very good: post-emergence action against green foxtail [1] | post-emergence action against lambsquarters [2] | post-emergence action against pig weed [3]

CNC(=O)C(NC(=O)c1ccc(F)cc1C(F)(F)F)C(OC(C)=O)c1ccccn1 (mixture of isomers) [Compound 3.53]
very good: post-emergence action against green foxtail [1] | post-emergence action against lambsquarters [2] | post-emergence action against pig weed [3]

CC[Si](CC)(CC)OC(c1ccsc1)C(NC(=O)c1ccc(F)cc1C(F)(F)F)C(=O)NC [Compound 3.13, (2S,3R)-threo-4-Fluoro-N-(1-methylcarbamoyl-2-thiophen-3-yl-2-triethylsilanyloxyethyl)-2-trifluoromethylbenzamide]
very good: post-emergence control of green foxtail [1] | post-emergence control of lambsquarters [2] | post-emergence control of pig weed [3]

CNC(=O)C(NC(=O)c1ccc(F)cc1C(F)(F)F)C(O)c1ccc(Cl)s1 (mixture of isomers) [Compound 3.28]
very good: post-emergence action against green foxtail [1] | post-emergence action against lambsquarters [2] | post-emergence action against pig weed [3]

CNC(=O)C(NC(=O)c1ccc(F)cc1C(F)(F)F)C(OC(C)=O)c1cccnc1Cl (racemic) [Compound 3.56]
very good: post-emergence action against green foxtail [1] | post-emergence action against lambsquarters [2] | post-emergence action against pig weed [3]

CNC(=O)C(NC(=O)c1ccc(F)cc1C(F)(F)F)C(OC(=O)N(C)C)c1ccc(Cl)s1 (mixture of isomers) [Compound 3.66]
very good: post-emergence action against green foxtail [1] | post-emergence action against lambsquarters [2] | post-emergence action against pig weed [3]

CNC(=O)C(NC(=O)c1ccc(F)cc1C(F)(F)F)C(O)c1cccnc1Cl (mixture of isomers) [Compound 3.40]
very good: post-emergence control of green foxtail [1] | post-emergence control of lambsquarters [2] | post-emergence control of pig weed [3]

CC[Si](CC)(CC)OC(c1ccc(Cl)s1)[C@H](NC(=O)c1ccc(F)cc1C(F)(F)F)C(=O)NC (stereo partly drawn) [Compound 3.79]
very good: post-emergence control of green foxtail [1] | post-emergence control of lambsquarters [2] | post-emergence control of pig weed [3]

CNC(=O)C(NC(=O)c1ccc(F)cc1C(F)(F)F)C(O)c1cccnc1Cl (mixture of isomers) [Compound 3.39]
very good: post-emergence control of green foxtail [1] | post-emergence control of lambsquarters [2] | post-emergence control of pig weed [3]

CNC(=O)C(NC(=O)c1ccc(F)cc1C(F)(F)F)C(O)c1ccccn1 (mixture of isomers) [Compound 3.36]
very good: post-emergence action against green foxtail [1] | post-emergence action against lambsquarters [2] | post-emergence action against pig weed [3]

CNC(=O)[C@@H](NC(=O)c1ccc(F)cc1C(F)(F)F)C(OC(=O)N(C)C)c1cccs1 (stereo partly drawn) [Compound 3.65]
very good: post-emergence action against green foxtail [1] | post-emergence action against lambsquarters [2] | post-emergence action against pig weed [3]

CNC(=O)C(NC(=O)c1ccc(F)cc1C(F)(F)F)C(OC(C)=O)c1cnccc1Cl (racemic) [Compound 3.57]
very good: post-emergence action against green foxtail [1] | post-emergence action against lambsquarters [2] | post-emergence action against pig weed [3]

CNC(=O)C(NC(=O)c1ccc(F)cc1C(F)(F)F)C(OC(=O)N(C)C)c1ccccn1 (mixture of isomers) [Compound 3.69]
very good: post-emergence action against green foxtail [1] | post-emergence action against lambsquarters [2] | post-emergence action against pig weed [3]

CNC(=O)C(NC(=O)c1ccc(F)cc1C(F)(F)F)C(OC(C)=O)c1ccncc1Cl (racemic) [Compound 3.59]
very good: post-emergence action against green foxtail [1] | post-emergence action against lambsquarters [2] | post-emergence action against pig weed [3]

CNC(=O)C(NC(=O)c1ccccc1C(F)(F)F)C(OC(=O)N(C)C)c1ccn(C)n1 (mixture of isomers) [Compound 3.20]
very good: post-emergence control of green foxtail [1] | post-emergence control of lambsquarters [2] | post-emergence control of pig weed [3]

CNC(=O)C(NC(=O)c1ccc(F)cc1C(F)(F)F)C(OC(=O)N(C)C)c1ccc[n+]([O-])c1Cl (racemic) [Compound 3.75]
very good: post-emergence action against green foxtail [1] | post-emergence action against lambsquarters [2] | post-emergence action against pig weed [3]

CNC(=O)C(NC(=O)c1ccc(F)cc1C(F)(F)F)C(OC(=O)N(C)C)c1cnccc1Cl (racemic) [Compound 3.74]
very good: post-emergence action against green foxtail [1] | post-emergence action against lambsquarters [2] | post-emergence action against pig weed [3]

CNC(=O)C(NC(=O)c1ccccc1C(F)(F)F)C(OC(=O)N(C)C)c1ccn(C)n1 (mixture of isomers) [Compound 3.21]
very good: post-emergence action against green foxtail [1] | post-emergence action against lambsquarters [2] | post-emergence action against pig weed [3]

CNC(=O)[C@@H](NC(=O)c1ccc(F)cc1C(F)(F)F)C(OC(=O)CSC)c1cccs1 (stereo partly drawn) [Compound 3.63]
very good: post-emergence action against green foxtail [1] | post-emergence action against lambsquarters [2] | post-emergence action against pig weed [3]

CNC(=O)C(NC(=O)c1ccc(F)cc1C(F)(F)F)C(O)c1ccc[n+]([O-])c1Cl (mixture of isomers) [Compound 3.41]
very good: post-emergence action against green foxtail [1] | post-emergence action against lambsquarters [2] | post-emergence action against pig weed [3]

CNC(=O)C(NC(=O)c1ccc(F)cc1C(F)(F)F)C(OC(=O)N(C)C)c1cccs1 (mixture of isomers) [Compound 3.10]
very good: post-emergence action against green foxtail [1] | post-emergence action against lambsquarters [2] | post-emergence action against pig weed [3]

CNC(=O)C(NC(=O)c1ccccc1C(F)(F)F)C(O)c1ccn(C)n1 (mixture of isomers) [Compound 3.14]
very good: post-emergence control of green foxtail [1] | post-emergence control of lambsquarters [2] | post-emergence control of pig weed [3]

CNC(=O)C(NC(=O)c1ccc(F)cc1C(F)(F)F)C(OC(=O)N(C)C)c1ccsc1 (mixture of isomers) [Compound 3.11]
very good: post-emergence control of green foxtail [1] | post-emergence control of lambsquarters [2] | post-emergence control of pig weed [3]
